pIC50: −log10 of the molar value. A value given as a limit tells only on which side of the number the result lay.

T1 sequence (Q16539 whole entry): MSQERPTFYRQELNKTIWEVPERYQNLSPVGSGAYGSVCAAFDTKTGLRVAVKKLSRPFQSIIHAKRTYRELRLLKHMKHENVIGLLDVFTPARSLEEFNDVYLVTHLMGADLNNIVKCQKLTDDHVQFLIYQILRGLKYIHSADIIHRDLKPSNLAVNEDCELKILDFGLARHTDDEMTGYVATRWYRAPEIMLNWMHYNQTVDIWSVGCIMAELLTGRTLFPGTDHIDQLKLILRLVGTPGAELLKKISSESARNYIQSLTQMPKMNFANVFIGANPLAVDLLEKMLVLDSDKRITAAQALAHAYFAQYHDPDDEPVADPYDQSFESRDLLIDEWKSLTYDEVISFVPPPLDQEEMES

This experiment has as its target T1, p38 MAP Kinase a (Homo sapiens, UniProt Q16539).
T1 construct: purchased Upstate (Dundee UK)
The experiment is described as follows: p38 MAP Kinase activity, radiometric filter-binding assay (Upstate). The class given is biochemical. The settings on record: IC50 range; read-out: Inhibitor activity versus p38 MAPKa. On the procedure:
The ability of compounds to inhibit p38 MAP a Kinase activity was measured in an assay performed by Upstate (Dundee UK). In a final reaction volume of 25 μL, p38 MAP Kinase a (5-10 mU) is incubated with 25 mM Tris pH 7.5, 0.002 mMEGTA, 0.33 mg/mL myelin basic protein, 10 mM MgAcetate and [g-33P-ATP] (specific activity approx. 500 cpm/pmol, concentration as required). The reaction is initiated by the addition of the MgATP mix. After incubation for 40 minutes at room temperature, the reaction is stopped by the addition of 5 μL of a 3% phosphoric acid solution. 10 μL of the reaction is then spotted onto a P30 filtermat and washed three times for 5 minutes in 75 mM phosphoric acid and once in methanol prior to drying and scintillation counting.
Duplicate data points are generated from a 1/3 log dilution series of a stock solution in DMSO. Nine dilutions steps are made from a top concentration of 10 μM, and a ‘no compound’ blank is included. The standard radiometric filter-binding assay is performed at an ATP concentration at, or close to, the Km. Data from scintillation counts are collected and subjected to free-fit analysis by Prism software. From the curve generated, the concentration giving 50% inhibition is determined and reported.
For `CC(C)(C)OC(=O)[C@@H](NCCc1ccc(-n2c(N)c(C(=O)c3ccc(F)cc3F)ccc2=O)cc1)C1CCCCC1` [Example 4, tert-butyl (2S)-{[2-(4-{6-amino-5-[(2,4-difluorophenyl)carbonyl]-2-oxopyridin-1(2H)-yl}phenyl)ethyl]amino}(cyclohexyl)ethanoate], the pIC50 is less than 6.00.

On to `Nc1c(C(=O)c2ccc(F)cc2)ccc(=O)n1-c1c(F)cc(CCN[C@H](C(=O)O)c2ccccc2)cc1F` [Example 62, (2S)-[(2-{4-[6-amino-5-(4-fluorobenzoyl)-2-oxopyridin-1(2H)-yl]-3,5-difluorophenyl}ethyl)amino](phenyl)acetic acid], for which the pIC50 was more than 7.00.

With `CC(C)C[C@@H](NCCc1ccc(-n2c(N)c(C(=O)c3ccc(F)cc3F)ccc2=O)cc1)C(=O)O` [Example 55, N-[2-(4-{6-amino-5-[(2,4-difluorophenyl)carbonyl]-2-oxopyridin-1(2H)-yl}phenyl)ethyl]-D-leucine], the pIC50 is 6.00 to 7.00.

In the case of `Nc1c(C(=O)c2ccc(F)cc2F)ccc(=O)n1-c1ccc(CCN[C@H](C(=O)O)C2CCCCC2)cc1` [Example 52, (2S)-{[2-(4-{6-amino-5-[(2,4-difluorophenyl)carbonyl]-2-oxopyridin-1(2H)-yl}phenyl)ethyl]amino}(cyclohexyl)ethanoic acid], the pIC50 is 6.00 to 7.00.

Consider `CC(C)C[C@H](NCCc1ccc(-n2c(N)c(C(=O)c3ccc(F)cc3F)ccc2=O)s1)C(=O)OC(C)(C)C` [Example 50, tbutyl N-(2-{5-[6-amino-5-(2,4-difluorobenzoyl)-2-oxopyridin-1(2H)-yl]-2-thienyl}ethyl)-L-leucinate], for which the pIC50 was 6.00 to 7.00.

With `CC(C)(C)OC(=O)[C@@H](NCCc1ccc(-n2c(N)c(C(=O)c3ccc(F)cc3F)ccc2=O)cc1)c1ccccc1` [Example 2, tert-butyl (2S)-{[2-(4-{6-amino-5-[(2,4-difluorophenyl)carbonyl]-2-oxopyridin-1(2H)-yl}phenyl)ethyl]amino}(phenyl)ethanoate], the pIC50 was 6.00 to 7.00.

For `C[C@H](NCCc1ccc(-n2c(N)c(C(=O)c3ccc(F)cc3F)ccc2=O)cc1)C(=O)OC(C)(C)C` [Example 21, tert-butyl N-[2-(4-{6-amino-5-[(2,4-difluorophenyl)carbonyl]-2-oxopyridin-1(2H)-yl}phenyl)ethyl]-L-alaninate], the pIC50 was more than 7.00.

For the molecule `C[C@H](NCCc1ccc(-n2c(N)c(C(=O)c3ccc(F)cc3F)ccc2=O)cc1)C(=O)O` [Example 60, N-[2-(4-{6-amino-5-[(2,4-difluorophenyl)carbonyl]-2-oxopyridin-1(2H)-yl}phenyl)ethyl]-L-alanine], the pIC50 is more than 7.00.

As for `CC(C)C[C@@H](NCCc1ccc(-n2c(N)c(C(=O)c3ccc(F)cc3F)ccc2=O)cc1)C(=O)OC(C)(C)C` [Example 10, tert-butyl N-[2-(4-{6-amino-5-[(2,4-difluorophenyl)carbonyl]-2-oxopyridin-1(2H)-yl}phenyl)ethyl]-D-leucinate], the pIC50 was 6.00 to 7.00.

`CC[C@H](C)[C@H](NCCc1ccc(-n2c(N)c(C(=O)c3ccc(F)cc3F)ccc2=O)cc1)C(=O)OC(C)(C)C` [Example 19, tert-butyl N-[2-(4-{6-amino-5-[(2,4-difluorophenyl)carbonyl]-2-oxopyridin-1(2H)-yl}phenyl)ethyl]-L-isoleucinate]: the pIC50 was 6.00 to 7.00.

As to `Nc1c(C(=O)c2ccc(F)cc2F)ccc(=O)n1-c1ccc(CCN[C@H](C(=O)O)c2ccccc2)cc1` [Example 51, (2S)-[(2-{4-[6-amino-5-(2,4-difluorobenzoyl)-2-oxopyridin-1(2H)yl]-phenyl}ethyl)amino](phenyl)acetic acid], the pIC50 was 6.00 to 7.00.

`CC(C)(C)OC[C@H](NCCc1cc(F)c(-n2c(N)c(C(=O)c3ccc(F)cc3F)ccc2=O)c(F)c1)C(=O)O` [Example 69, N-(2-{4-[6-amino-5-(2,4-difluorobenzoyl)-2-oxopyridin-1(2H)-yl]-3,5-difluorophenyl}ethyl)-O-tert-butyl-L-serine]: the pIC50 is more than 7.00.

As to `CC(C)(C)[C@H](NCCc1ccc(-n2c(N)c(C(=O)c3ccc(F)cc3F)ccc2=O)cc1)C(=O)O` [Example 54, N-[2-(4-{6-amino-5-[(2,4-difluorophenyl)carbonyl]-2-oxopyridin-1(2H)-yl}phenyl)ethyl]-3-methyl-L-valine], the pIC50 is 6.00 to 7.00.

Turning to `CC(C)(C)OC[C@H](NCCc1cc(F)c(-n2c(N)c(C(=O)c3ccc(F)cc3)ccc2=O)c(F)c1)C(=O)OC(C)(C)C` [Example 32, tert-butyl N-(2-{4-[6-amino-5-(4-fluorobenzoyl)-2-oxopyridin-1(2H)-yl]-3,5-difluorophenyl}ethyl)-O-tert-butyl-L-serinate], the pIC50 was 6.00 to 7.00.

As for `CC(C)C[C@H](NCCc1cc(F)c(-n2c(N)c(C(=O)c3ccc(F)cc3)ccc2=O)c(F)c1)C(=O)O` [Example 63, N-(2-{4-[6-amino-5-(4-fluorobenzoyl)-2-oxopyridin-1(2H)-yl]-3,5-difluorophenyl}ethyl)-L-leucine], the pIC50 is more than 7.00.

For the molecule `C[C@@H](OC(C)(C)C)[C@H](NCCc1ccc(-n2c(N)c(C(=O)c3ccc(F)cc3F)ccc2=O)cc1)C(=O)OC(C)(C)C` [Example 16, tert-butyl N-[2-(4-{6-amino-5-[(2,4-difluorophenyl)carbonyl]-2-oxopyridin-1(2H)-yl}phenyl)ethyl]-O-tert-butyl-L-threoninate], the pIC50 is 6.00 to 7.00.

With `CC(C)[C@H](NCCc1ccc(-n2c(N)c(C(=O)c3ccc(F)cc3F)ccc2=O)cc1)C(=O)O` [Example 53, N-[2-(4-{6-amino-5-[(2,4-difluorophenyl)carbonyl]-2-oxopyridin-1(2H)-yl}phenyl)ethyl]-L-valine], the pIC50 was more than 7.00.

In the case of `Nc1c(C(=O)c2ccc(F)cc2F)ccc(=O)n1-c1c(F)cc(CCN[C@H](C(=O)O)c2ccccc2)cc1F` [Example 66, (2S)-[(2-{4-[6-amino-5-(2,4-difluorobenzoyl)-2-oxopyridin-1(2H)-yl]-3,5-difluorophenyl}ethyl)amino](phenyl)acetic acid], the pIC50 is more than 7.00.

On to `CC(C)C[C@H](NCCc1ccc(-n2c(N)c(C(=O)c3ccc(F)cc3F)ccc2=O)s1)C(=O)O` [Example 71, N-(2-{5-[6-amino-5-(2,4-difluorobenzoyl)-2-oxopyridin-1(2H)-yl]-2-thienyl}ethyl)-L-leucine], for which the pIC50 was 6.00 to 7.00.

As for `CC(C)C[C@@H](NCCc1cc(F)c(-n2c(N)c(C(=O)c3ccc(F)cc3)ccc2=O)c(F)c1)C(=O)O` [Example 64, N-(2-{4-[6-amino-5-(4-fluorobenzoyl)-2-oxopyridin-1(2H)-yl]-3,5-difluorophenyl}ethyl)-D-leucine], the pIC50 was more than 7.00.

For the molecule `CC(C)C[C@@H](NCCc1cc(F)c(-n2c(N)c(C(=O)c3ccc(F)cc3F)ccc2=O)c(F)c1)C(=O)O` [Example 68, N-(2-{4-[6-amino-5-(2,4-difluorobenzoyl)-2-oxopyridin-1(2H)-yl]-3,5-difluorophenyl}ethyl)-D-leucine], the pIC50 is more than 7.00.

For the molecule `CC(C)(C)OC(=O)[C@H](Cc1ccccc1)NCCc1ccc(-n2c(N)c(C(=O)c3ccc(F)cc3F)ccc2=O)cc1` [Example 23, tert-butyl N-[2-(4-{6-amino-5-[(2,4-difluorophenyl)carbonyl]-2-oxopyridin-1(2H)-yl}phenyl)ethyl]-L-phenylalaninate], the pIC50 was 6.00 to 7.00.

For the origin of these results see patent US20100267774A1, “P38 MAP KINASE INHIBITORS” (CHROMA THERAPEUTICS LTD., priority 2007, published 2010).
